We go through five compounds from paper PMC4070292 (Molecular nutrition & food research, 2012).

Series [1] has as its system TNF-α. The series is described as follows: LPS-induced TNF-α release in macrophages. It is filed as cell-based, murine. The note with it: 100 ng/mL LPS.
Series [2] relates to NF-κB. The series is described as follows: NF-κB SEAP reporter gene assay in LPS-stimulated macrophages. It is filed as cell-based, murine. The note with it: 16 h; for decrease of NF-κB activity versus control / effect on LPS-induced NF-κB activity: LPS; for decrease of NF-κB activity versus control: 50 μM; for effect on LPS-induced NF-κB activity: doses as high as 100 μM; for effect on NF-κB activity without LPS: compound alone with diluent control; for effect on LPS-stimulated NF-κB activity: 100 ng/mL LPS, 25 μM.

The conditions of series [3]: diet containing 0.2% pure apigenin for 7 days ref 47; cited from earlier work.
For series [4] the following is noted: rats, 14 mg luteolin/kg body weight by gavage, after 1 h ref 48; cited from earlier work.

As to `O=c1cc(-c2ccc(O)cc2)oc2cc(O[C@@H]3O[C@H](CO)[C@@H](O)[C@H](O)[C@H]3O)cc(O)c12` [apigenin 7-O-glucoside], the “effect on LPS-induced TNF-α” value in series [1] (10–25 μM, data not shown) is “no effect”. For the same compound, the “effect on LPS-induced TNF-α” value in series [1] (8 h, doses as high as 100 μM) is reported as “no effect”. Besides, in series [2], the “decrease of NF-κB activity versus control” value is recorded as “not statistically significant”, the “effect on LPS-induced NF-κB activity” value was “no effect” and the “effect on NF-κB activity without LPS” value is given as “no effect”.

Turning to `O=c1cc(-c2ccc(O)cc2)oc2cc(O)cc(O)c12` [apigenin], the “effect on LPS-induced TNF-α” value in series [1] (8 h, doses as low as 10 μM) was “significant reduction”. For the same compound, the “apigenin in mouse plasma” value in series [3] is given as 90 nM.

`COc1cc(-c2cc(=O)c3c(O)cc(O)cc3o2)ccc1O` [chrysoeriol, Chrysoeriol]: in series [1] (8 h, doses as low as 10 μM), the “effect on LPS-induced TNF-α” value is listed as “significant reduction”. In addition, in series [2], the “effect on LPS-stimulated NF-κB activity” value is “significantly reduced” and the “effect on NF-κB activity without LPS” value is reported as “no effect”.

With `O=c1cc(-c2ccc(O)c(O)c2)oc2cc(O[C@@H]3O[C@H](CO)[C@@H](O)[C@H](O)[C@H]3O)cc(O)c12` [luteolin 7-O-glucoside], in series [1] (10–25 μM, data not shown), the “effect on LPS-induced TNF-α” value was “no effect”. In addition, the “effect on LPS-induced TNF-α” value in series [1] (8 h, doses as high as 100 μM) is on record as “no effect”. In series [2], the “decrease of NF-κB activity versus control” value is “not statistically significant”, the “effect on LPS-induced NF-κB activity” value is given as “no effect” and the “effect on NF-κB activity without LPS” value is listed as “no effect”.

`O=c1cc(-c2ccc(O)c(O)c2)oc2cc(O)cc(O)c12` [luteolin]: the “effect on LPS-induced TNF-α” value in series [1] (8 h, doses as low as 10 μM) was “significant reduction”. In series [2], the “effect on LPS-stimulated NF-κB activity” value is “significantly reduced” and the “effect on NF-κB activity without LPS” value is given as “no effect”. Also, the peak plasma concentration in series [4] was 6.9 µM.
